The values that follow come from ChEMBL document CHEMBL5338748, “Structure-Based Discovery of a New Selectivity-Enabling Motif for the FK506-Binding Protein 51” (J Med Chem, 2023).

In series [1] the target is T1, Peptidyl-prolyl cis-trans isomerase FKBP4 (Homo sapiens, UniProt Q02790).
T1 sequence (Q02790 whole entry): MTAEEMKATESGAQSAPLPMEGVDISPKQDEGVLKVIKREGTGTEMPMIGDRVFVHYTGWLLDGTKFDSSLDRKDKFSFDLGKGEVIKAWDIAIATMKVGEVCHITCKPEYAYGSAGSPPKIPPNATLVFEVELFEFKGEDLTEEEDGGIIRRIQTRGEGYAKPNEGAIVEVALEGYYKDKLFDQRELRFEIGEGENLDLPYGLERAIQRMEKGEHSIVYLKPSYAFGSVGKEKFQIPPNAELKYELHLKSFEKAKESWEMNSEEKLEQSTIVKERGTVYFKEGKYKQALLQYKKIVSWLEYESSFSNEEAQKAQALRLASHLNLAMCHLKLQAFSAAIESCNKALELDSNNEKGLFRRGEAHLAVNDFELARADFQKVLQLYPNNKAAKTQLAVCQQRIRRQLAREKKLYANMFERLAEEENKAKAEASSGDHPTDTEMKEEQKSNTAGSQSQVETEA
As to the kind of experiment: Binding affinity to FKBP52 (unknown origin) assessed as inhibition constant by fluorescence polarization assay. For orientation: Polarisation of emitted light reports the rotation of a fluorescent probe.

For series [2], the target named is T2, Peptidyl-prolyl cis-trans isomerase FKBP5 (Homo sapiens, UniProt Q13451).
T2 sequence (Q13451 whole entry): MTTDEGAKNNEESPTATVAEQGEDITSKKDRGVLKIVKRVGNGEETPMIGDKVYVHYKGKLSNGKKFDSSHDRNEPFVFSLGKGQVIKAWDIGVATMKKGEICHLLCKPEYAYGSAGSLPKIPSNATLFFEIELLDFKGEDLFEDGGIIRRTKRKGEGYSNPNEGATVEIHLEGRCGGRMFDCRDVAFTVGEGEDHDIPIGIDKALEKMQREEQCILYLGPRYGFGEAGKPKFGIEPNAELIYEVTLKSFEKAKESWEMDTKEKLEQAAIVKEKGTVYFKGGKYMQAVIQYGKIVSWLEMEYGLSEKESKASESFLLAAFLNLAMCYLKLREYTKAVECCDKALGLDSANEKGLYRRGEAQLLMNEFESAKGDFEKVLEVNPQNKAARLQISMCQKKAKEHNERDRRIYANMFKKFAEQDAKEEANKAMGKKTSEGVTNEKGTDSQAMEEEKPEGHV
As to the kind of experiment: Binding affinity to FKBP51 (unknown origin) assessed as inhibition constant by fluorescence polarization assay.

The target of series [3] is T2, Peptidyl-prolyl cis-trans isomerase FKBP5. As to the kind of experiment: Binding affinity to FKBP51 (unknown origin).
Series [4] has as its target Transient receptor potential cation channel subfamily V member 1 (Mus musculus) (UniProt Q704Y3). As to the kind of experiment: Desensitization of TRPV1 in naive C57BL/Nrj mouse dorsal root ganglion primary sensory neurons assessed as reduction in capsaicin-stimulated calcium influx at 1 uM preincubated for 2 mins followed by capsaicin stimulation and measured after 20 secs relative to control. It counts as tissue-based. The arrangement: scale not given: the % may be the effect or the level left. The note with it: Primary sensory neuron, time 140.0 sec.

Series [5] concerns the target T2, Peptidyl-prolyl cis-trans isomerase FKBP5. As to the kind of experiment: Inhibition of FKBP51 (unknown origin) expressed in HEK293T cells incubated for 2 hrs by NanoBRET assay. The class given is cell-based. Background: In BRET a luciferase serves as donor, and the signal depends on an acceptor being close.
Series [6] has as its target Transient receptor potential cation channel subfamily V member 1 (Mus musculus) (UniProt Q704Y3). As to the kind of experiment: Desensitization of TRPV1 in C57BL/Nrj mouse dorsal root ganglion primary sensory neurons assessed as reduction in capsaicin-stimulated calcium influx at 0.5 uM preincubated for 2 mins followed by capsaicin stimulation and measured after 20 secs. The class given is tissue-based. The note with it: Primary sensory neuron, time 140.0 sec.

The target in series [7] is T1, Peptidyl-prolyl cis-trans isomerase FKBP4. As to the kind of experiment: Inhibition of FKBP52 (unknown origin) expressed in HEK293T cells incubated for 2 hrs by NanoBRET assay. It counts as cell-based.
A short description of series [8]: Drug penetration in C57BL/6 mouse brain at 10 mg/kg, ip administered as single dose and measured after 6 hrs. It counts as ADME, organism-based. The note with it: in vivo.
A short description of series [9]: Volume of distribution in C57BL/6 mouse at 10 mg/kg, ip measured after 6 hrs. It counts as ADME, organism-based. The note with it: in vivo.
Series [10] in a line: Half life in C57BL/6 mouse at 10 mg/kg, ip measured after 6 hrs. It counts as ADME, organism-based. The note with it: in vivo.
Series [11] is described as follows: Tmax in C57BL/6 mouse at 10 mg/kg, ip measured after 6 hrs. The note with it: in vivo. The class given is ADME, organism-based.
A short description of series [12]: Cmax in C57BL/6 mouse at 10 mg/kg, ip measured after 6 hrs. The class given is ADME, organism-based. The arrangement: time 6 hrs, dose 10 mg/kg, route ip. The note with it: in vivo.
Series [13] in a line: Drug accumulation in C57BL/6 mouse gonadal white adipose tissue at 10 mg/kg, ip administered as single dose and measured after 6 hrs. It counts as ADME, organism-based. The note with it: in vivo.

Calls of active or inactive are those of the source. No cut-off for these calls is given here.

Chain of Transient receptor potential cation channel subfamily V member 1 (Mus musculus) (Q704Y3 whole entry): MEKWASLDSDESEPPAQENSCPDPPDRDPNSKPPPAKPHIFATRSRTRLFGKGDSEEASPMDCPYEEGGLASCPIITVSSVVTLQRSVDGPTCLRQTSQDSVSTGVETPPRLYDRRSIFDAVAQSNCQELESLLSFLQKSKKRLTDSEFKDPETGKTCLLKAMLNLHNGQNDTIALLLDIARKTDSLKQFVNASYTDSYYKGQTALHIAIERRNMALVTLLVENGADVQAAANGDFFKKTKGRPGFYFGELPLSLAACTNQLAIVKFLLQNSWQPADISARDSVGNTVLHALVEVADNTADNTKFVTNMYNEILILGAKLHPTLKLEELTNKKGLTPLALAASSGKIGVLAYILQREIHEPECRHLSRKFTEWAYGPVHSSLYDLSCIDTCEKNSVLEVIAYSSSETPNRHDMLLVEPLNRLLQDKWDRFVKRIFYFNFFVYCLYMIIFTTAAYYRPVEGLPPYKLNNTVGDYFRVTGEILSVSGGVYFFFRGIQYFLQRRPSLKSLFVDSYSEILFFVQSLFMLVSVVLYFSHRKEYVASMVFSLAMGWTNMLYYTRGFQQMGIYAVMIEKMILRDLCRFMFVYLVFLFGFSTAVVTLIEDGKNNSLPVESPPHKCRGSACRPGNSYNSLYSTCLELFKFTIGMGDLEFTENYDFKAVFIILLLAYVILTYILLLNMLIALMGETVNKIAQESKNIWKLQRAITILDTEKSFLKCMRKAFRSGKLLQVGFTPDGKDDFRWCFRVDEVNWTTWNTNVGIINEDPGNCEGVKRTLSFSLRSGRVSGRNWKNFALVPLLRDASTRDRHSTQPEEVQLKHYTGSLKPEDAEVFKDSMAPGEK

Usually Ki stands for a measure of affinity in units of concentration, obtained from inhibition or displacement. As for `COc1ccc(CC[C@@H](OC(=O)[C@@H]2CCCCN2C(=O)[C@H](c2cc(OC)c(OC)c(OC)c2)c2ccc(C#N)s2)c2cccc(OCC(=O)O)c2)cc1OC`, the Ki is 2730 nM in series [1] and 23 nM in [2].

Take `COc1ccc(CC[C@H]2OC(=O)[C@@H]3CCCCN3C(=O)[C@@H](C3CCCCC3)NC(=O)C3(CC3)NC(=O)COc3cccc2c3)cc1OC`: in series [3], affinity was put at a Ki of 400 nM.

In the case of `COc1ccc(CC[C@@H](OC(=O)[C@@H]2CCCCN2C(=O)[C@H](c2cc(OC)c(OC)c(OC)c2)c2cccs2)c2cccc(OCC(=O)O)c2)cc1OC`, the Ki turned out to be 10200 nM in series [1] and 103 nM in [2].

For `CCc1ccc([C@H](C(=O)N2CCCC[C@H]2C(=O)O[C@H](CCc2ccc(OC)c(OC)c2)c2cccc(OCC(=O)O)c2)c2cc(OC)c(OC)c(OC)c2)s1`, the results for the Ki in series [1] and in series [2] were greater than 1000 nM and 13 nM, respectively.

`CC[C@@H](C(=O)N1CCCC[C@H]1C(=O)O[C@H](CCc1ccc(OC)c(OC)c1)c1cccc(OCC(=O)O)c1)c1ccc(Cl)s1`: the figures for the Ki in [1] and in [2] were greater than 10000 nM and 210 nM, respectively.

Consider `COc1ccc(CC[C@@H](OC(=O)[C@@H]2CCCCN2C(=O)[C@H](c2cc(OC)c(OC)c(OC)c2)c2ccc(Br)s2)c2cccc(OCC(=O)O)c2)cc1OC`, for which the Ki amounted to 436 nM in series [1] and 7 nM in series [2].

Regarding `C=CC[C@@H](C(=O)N1CCCC[C@H]1C(=O)O[C@H](CCc1ccc(OC)c(OC)c1)c1cccc(OCC(=O)O)c1)c1ccc(Cl)s1`, the values for the inhibitory constant (Ki) in [1] and in [2] were greater than 10000 nM and 223 nM, respectively.

For the compound `COc1ccc(CC[C@@H](OC(=O)[C@@H]2CCCCN2C(=O)[C@H](c2cc(OC)c(OC)c(OC)c2)c2ccc(C)s2)c2cccc(OCC(=O)O)c2)cc1OC`, the Ki in series [1] came out at 1030 nM; in series [2] it was 7 nM.

Regarding `COc1ccc(CC[C@@H](OC(=O)[C@@H]2CCCCN2C(=O)[C@@H](c2ccsc2)c2cc(OC)c(OC)c(OC)c2)c2cccc(OCC(=O)O)c2)cc1OC`, the inhibition constant (Ki) in series [1] stood at 18000 nM; in series [2], 140 nM.

`COc1ccc(CC[C@@H](OC(=O)[C@@H]2CCCCN2C(=O)[C@@H](c2ccccc2)c2cc(OC)c(OC)c(OC)c2)c2cccc(OCC(=O)O)c2)cc1OC`: the values for the inhibitory constant (Ki) in [1] and in series [2] were 43800 nM and 118 nM, respectively.

`COc1ccc(CC[C@H]2OC(=O)[C@@H]3CCCCN3C(=O)[C@@H](C3CCCCC3)c3cc(OC)c(OC)c(c3)OC[C@H](O)[C@H](O)COc3cccc2c3)cc1OC` showed an inhibition constant Ki in [3] of 5 nM.

With `COc1ccc(CC[C@@H](OC(=O)[C@@H]2CCCCN2C(=O)C(c2ccc(Cl)s2)C2CCCCC2)c2cccc(OCC(=O)O)c2)cc1OC` (stereo partly specified), the inhibitory constant (Ki) in [1] was greater than 10000 nM; in [2], 154 nM.

By IC50 is commonly meant the concentration that gives 50% inhibition. As to `COc1ccc(CCC(OC(=O)C2CCCCN2C(=O)[C@H](c2cc(OC)c(OC)c(OC)c2)c2ccc(C)s2)c2cccc(OCCN3CCOCC3)c2)cc1OC` (single isomer, unassigned), the figures for the inhibition constant (Ki) in series [1] and in [2] were 775 nM and 17 nM, respectively. Besides, in series [4], the Activity amounted to 50%. This compound also had an IC50 in series [5] of 613 nM. Also, in series [6], the result was Active.

The half-life is the time in which the quantity being followed falls by half. The term Tmax denotes the time at which the peak concentration occurs. Broadly, the Cmax is the maximum level reached in the sampled fluid or tissue. With `COc1ccc(CCC(OC(=O)C2CCCCN2C(=O)[C@H](c2cc(OC)c(OC)c(OC)c2)c2ccc(Cl)s2)c2cccc(OCCN3CCOCC3)c2)cc1OC` (single isomer, unassigned), the 50% inhibitory concentration (IC50) is 2900 nM in [7] and 584 nM in series [5]. For the same compound, the inhibition constant (Ki) in series [1] turned out to be 774 nM; in [2], 19 nM. Also, the Activity in series [4] stood at 50%. Further, the Drug uptake result in [8] and in series [13] was “Active” each time. This compound also displayed a Vd in series [9] of 0.3 L. The compound also had a half-life in series [10] of 4.3 h. The time to peak (Tmax) in series [11] stood at 0.5 h. This compound also had a Cmax in series [12] of 990 ng/mL.

Regarding `COc1ccc(CC[C@@H](OC(=O)[C@@H]2CCCCN2C(=O)[C@H](c2cc(OC)c(OC)c(OC)c2)C2CCCCC2)c2cccc(OCC(=O)O)c2)cc1OC`, the inhibition constant (Ki) in series [1] stood at 3860 nM; in series [2] it was 6 nM.

With `COc1ccc(CC[C@@H](OC(=O)[C@@H]2CCCCN2C(=O)[C@H](C)c2ccc(Cl)s2)c2cccc(OCC(=O)O)c2)cc1OC`, the values for the Ki in [1] and in [2] were greater than 50000 nM and 300 nM, respectively.

Take `COc1ccc(CC[C@@H](OC(=O)[C@@H]2CCCCN2C(=O)[C@H](c2cc(OC)c(OC)c(OC)c2)c2ccc(C3CC3)s2)c2cccc(OCC(=O)O)c2)cc1OC`: the Ki in series [1] is greater than 1000 nM; in series [2], 41 nM.

As to `COc1ccc(CC[C@@H](OC(=O)[C@@H]2CCCCN2C(=O)[C@H](c2cc(OC)c(OC)c(OC)c2)c2ccc(Cl)s2)c2cccc(OCC(=O)O)c2)cc1OC`, the Ki in series [1] was determined as 950 nM; in [2], 4 nM.

For the compound `COc1ccc(CC[C@@H](OC(=O)[C@@H]2CCCCN2C(=O)[C@@H](CN2CCOCC2)c2cc(OC)c(OC)c(OC)c2)c2cccc(OCC(=O)O)c2)cc1OC`, the half-maximal inhibitory concentration (IC50) in [7] came to 3180 nM; in series [5] it was 196 nM. The results for the Ki in series [1] and in series [2] were 2160 nM and 8 nM, respectively. This compound also came in with a Vd in series [9] of 0.1 L. The compound further showed a half-life in series [10] of 3.7 h. For the same compound, in [11], the Tmax was found to be 1 h. Also, the Cmax in series [12] came to 3060 ng/mL.

Regarding `COc1ccc(CC[C@@H](OC(=O)[C@@H]2CCCCN2C(=O)C(c2cccs2)C2CCCCC2)c2cccc(OCC(=O)O)c2)cc1OC` (stereo partly specified), the results for the Ki in series [1] and in series [2] were greater than 30000 nM and 442 nM, respectively.
